Test results taken from patent US20140235643A1, “NOVEL QUINOXALINE INHIBITORS OF PI3K” (GILEAD CALISTOGA LLC, priority 2011, published 2014).

Key:
[1] = target: T1, PI3Kα (p110α/p85α) (Homo sapiens, UniProt P42336); experiment: PI3K biochemical enzyme assay (Adapta universal kinase assay), p110 alpha/p85 alpha; conditions: for IC50: Table 1, lower part, read-out: PI3Kα IC50
T1 construct: purchased Invitrogen
Procedure: (§1) This example describes a method of obtaining in vitro activity data concerning the effect of compounds of on various PI3K isoforms. The effect of compounds on the kinase activity of Class I PI3Ks was measured at Invitrogen by using the Adapta® universal kinase assay. It was a homogenous, fluorescent based immunoassay for the detection of ADP produced by the kinase reaction. This assay can be divided into two phases: a kinase reaction phase, and an ADP detection phase. In the kinase reaction phase, all components required for the kinase reaction were added to the well, and the reaction was allowed to incubate for 60 minutes. After the reaction, a detection solution consisting of a europium labeled anti-ADP antibody, an Alexa Fluor® 647 labeled ADP tracer, and EDTA (to stop the kinase reaction) was added to the assay well. ADP formed by the kinase reaction (in the absence of an inhibitor) displaced the Alexa Fluor® 647 labeled ADP tracer from the antibody, resulting in a decrease in the TR-FRET signal.
(§2) ADP formation was determined by calculating the emission ratio from the assay well. The emission ratio was calculated by dividing the intensity of the tracer (acceptor) emission by the intensity of the Eu (donor) emission at 615 nm as shown in the equation below.
(§3) The Test Compounds were screened in 1% DMSO (final) in the well. All Substrate/Kinase Mixtures were diluted to a 2× working concentration in the appropriate Kinase Buffer as described below for the individual kinase:
(§4) The 2× p110 alpha/p85 alpha/PIP2:PS mixture was prepared in 50 mM HEPES pH 7.5, 100 mM NaCl, 0.03% CHAPS, 3 mM mgCl2, 1 mM EGTA. The final 10 μL Kinase Reaction consisted of 0.3-1.5 ng p110 alpha/p85 alpha and 50 μM PIP2:PS in 32.5 mM HEPES pH 7.5, 50 mM NaCl, 0.015% CHAPS, 1.5 mM mgCl2, 0.5 mM EGTA. After the 1 hour Kinase Reaction incubation, 5 μL of Detection Mix was added.
(§5) The Detection mix consisted of EDTA (30 mM), Eu-anti-ADP antibody (30 nM) and ADP tracer. All ATP Solutions were diluted to a 4× working concentration in water and used at the Km apparent concentrations for each individual kinase.

[2] = target: T2, PI3Kβ (p110β/p85α) (Homo sapiens, UniProt P42338); experiment: PI3K biochemical enzyme assay (Adapta universal kinase assay), p110 beta/p85 alpha; conditions: for inhibition at 10 µM: read-out: PI3Kβ % inhib; for IC50: Table 1, lower part, read-out: PI3Kβ IC50
T2 construct: purchased Invitrogen
Procedure: as §1, §2, §3
The 2× p 110beta/p85 alpha/PIP2:PS mixture was prepared in 50 mM HEPES pH 7.5, 100 mM NaCl, 0.03% CHAPS, 1 mM EGTA, 3 mM mgCl2, and 2 mM DTT. The final 10 μL Kinase Reaction consisted of 35.4 ng p110 beta/p85 alpha and 50 μM PIP2:PS. After the 1 hour Kinase Reaction incubation, 5 μL of Detection Mix was added.
as §5

[3] = target: T3, PI3Kδ (p110δ/p85α) (Homo sapiens, UniProt O00329); experiment: PI3K biochemical enzyme assay (Adapta universal kinase assay), p110 delta/p85 alpha; conditions: for IC50: Table 1, lower part, read-out: PI3Kδ IC50
T3 construct: purchased Invitrogen
Procedure: as §1, §2, §3
as §4, with “p110 delta/p85” for “p110 alpha/p85”, “of 0.35-2.6” for “of 0.3-1.5”, “incubation, […]” for “incubation, 5”
as §5

[4] = target: T4, PI3Kγ (p110 gamma) (Homo sapiens, UniProt P48736); experiment: PI3K biochemical enzyme assay (Adapta universal kinase assay), p110 gamma; conditions: for inhibition at 1 µM / inhibition at 10 µM: read-out: PI3Kγ % inhib; for IC50: Table 1, lower part, read-out: PI3Kγ IC50; for increase in gamma potency compared to analog without amino substituent on the purine ring: Q17 vs Q16, Q15 vs Q14
T4 construct: purchased Invitrogen
Procedure: as §1, §2, §3
The 2× p110 gamma/PIP2:PS mixture was prepared in 50 mM HEPES pH 7.5, 1 mM EGTA, 3 mM mgCl2. The final […] Kinase Reaction consisted of 3.5-26 ng p110 gamma and 50 μM PIP2:PS in 32.5 mM HEPES pH 7.5, 0.5 mM EGTA, 1.5 mM mgCl2. After the 1 hour Kinase Reaction incubation, 5 μL of Detection Mix was added.
as §5

[5] = target: T5, PI3Kα (Mus musculus, UniProt P42337); experiment: PI3Kα-dependent cell-based assay: PDGF-BB mediated AKT phosphorylation in Swiss-3T3 cells; conditions: PDGF-BB-induced AKT phosphorylation, Swiss-3T3 fibroblasts
T5 construct: endogenous in cells; host or cells: Swiss-3T3 fibroblasts (ATCC)
Procedure: (§6) PDGF-BB-induced AKT phosphorylation in Swiss-3T3 fibroblasts is mediated by p110α. C5a-induced AKT phosphorylation in RAW-264 murine macrophages is mediated exclusively by p110γ.
PI3Kα-Dependent Cell-Based Assay: PDGF-BB Mediated AKT Phosphorylation in Swiss-3T3 Cells
Swiss-3T3 fibroblasts (American Type Culture Collection) were cultured with DMEM containing 10% fetal bovine serum and the antibiotics penicillin and streptomycin. Cells were seeded on a 96-well Tissue Culture Plate at 25,000 cells/well and allowed to reach at least 90% confluency. The cells were starved for 2 to 12 hr in 0.1% FBS containing medium and then were pretreated with inhibitors or DMSO for 2 hr. The cells were stimulated for 15 min with 10 ng/ml PDGF-BB (Cell Signaling Technology) at 37° C. in 5% CO2. The culture medium was removed and cells were fixed for 20 min at room temperature by addition of 100 μl of 4% cell fixing buffer to each well. AKT phosphorylation and total AKT was detected by ELISA.
(§7) Detection of Phospho-Ser-473 AKT and Total AKT by ELISA
(§8) The fixed cells were washed twice with 150 μl of wash buffer (WB) and quenched by incubating with 100 μl of Quenching Buffer for 20 min at room temperature. Cells were washed once with 150 μl WB and blocked by incubating with 100 μl of Blocking Buffer for 1 hr at room temperature. Cells were incubated with 50 μl of primary antibody diluted in Blocking Buffer, either phospho-Ser-473 AKT specific (1:150 dilution) or total-AKT antibody (1:200 dilution), to each specific well. The negative control wells contained 50 μl of Blocking Buffer. Plates were sealed with plate sealing film and incubated overnight at 4° C. Cells were washed twice with 150 μl WB followed by addition of 50 μl per well of DELFIA secondary antibody (50 ng/well, diluted in DELFIA Assay Buffer). After 2 hr incubation at room temperature, cells were washed 4 times with 150 μl of Europium Wash Solution followed by addition of 100 μl of DELFIA Enhancing Solution to each well. Plates were incubated for 5 min in the dark and fluorescent signal was read using SpectraMax M5™ (Molecular Devices). Total AKT level was determined to verify equal cell number per well. The average background fluorescence values from wells that received vehicle control in the absence of PDGF-BB or C5a were subtracted from all the values of experimental conditions. Fluorescence values corresponding to phosphorylated AKT from wells that received PDGF-BB or C5a were normalized to 100% and compound effect was plotted as % change relative to the vehicle control.

[6] = target: T6, PI3Kγ (Mus musculus, UniProt Q9JHG7); experiment: PI3Kγ-dependent cell-based assay: C5a-mediated AKT phosphorylation in RAW-264 cells; design: species or system murine; conditions: C5a-induced AKT phosphorylation, RAW-264 macrophages
T6 construct: endogenous in cells; host or cells: RAW-264 macrophage cells (ATCC)
Procedure: as §6
PI3Kγ-Dependent Cell-Based Assay: C5a-Mediated AKT Phosphorylation in RAW-264 Cells
RAW-264 macrophage cells (American Type Culture Collection) were cultured with Dulbecco's modified Eagle medium (DMEM) containing 10% fetal bovine serum and the antibiotics penicillin and streptomycin. Cells were seeded on a 96-well Tissue Culture Plate at 100,000 to 200,000 cells/well the day before the experiment. Next day, cells were starved for 2 hr in 0.1% FBS containing medium. The cells were pretreated with inhibitors or DMSO for 2 hr and stimulated for 5 min with 75 ng/ml C5a (R&D) at 37° C. in 5% CO2. The culture medium was removed and cells were fixed for 20 min at room temperature by addition of 100 μl of 4% cell fixing buffer to each well. AKT phosphorylation and total AKT was detected by ELISA.
as §7, §8

T4 sequence (P48736 whole entry): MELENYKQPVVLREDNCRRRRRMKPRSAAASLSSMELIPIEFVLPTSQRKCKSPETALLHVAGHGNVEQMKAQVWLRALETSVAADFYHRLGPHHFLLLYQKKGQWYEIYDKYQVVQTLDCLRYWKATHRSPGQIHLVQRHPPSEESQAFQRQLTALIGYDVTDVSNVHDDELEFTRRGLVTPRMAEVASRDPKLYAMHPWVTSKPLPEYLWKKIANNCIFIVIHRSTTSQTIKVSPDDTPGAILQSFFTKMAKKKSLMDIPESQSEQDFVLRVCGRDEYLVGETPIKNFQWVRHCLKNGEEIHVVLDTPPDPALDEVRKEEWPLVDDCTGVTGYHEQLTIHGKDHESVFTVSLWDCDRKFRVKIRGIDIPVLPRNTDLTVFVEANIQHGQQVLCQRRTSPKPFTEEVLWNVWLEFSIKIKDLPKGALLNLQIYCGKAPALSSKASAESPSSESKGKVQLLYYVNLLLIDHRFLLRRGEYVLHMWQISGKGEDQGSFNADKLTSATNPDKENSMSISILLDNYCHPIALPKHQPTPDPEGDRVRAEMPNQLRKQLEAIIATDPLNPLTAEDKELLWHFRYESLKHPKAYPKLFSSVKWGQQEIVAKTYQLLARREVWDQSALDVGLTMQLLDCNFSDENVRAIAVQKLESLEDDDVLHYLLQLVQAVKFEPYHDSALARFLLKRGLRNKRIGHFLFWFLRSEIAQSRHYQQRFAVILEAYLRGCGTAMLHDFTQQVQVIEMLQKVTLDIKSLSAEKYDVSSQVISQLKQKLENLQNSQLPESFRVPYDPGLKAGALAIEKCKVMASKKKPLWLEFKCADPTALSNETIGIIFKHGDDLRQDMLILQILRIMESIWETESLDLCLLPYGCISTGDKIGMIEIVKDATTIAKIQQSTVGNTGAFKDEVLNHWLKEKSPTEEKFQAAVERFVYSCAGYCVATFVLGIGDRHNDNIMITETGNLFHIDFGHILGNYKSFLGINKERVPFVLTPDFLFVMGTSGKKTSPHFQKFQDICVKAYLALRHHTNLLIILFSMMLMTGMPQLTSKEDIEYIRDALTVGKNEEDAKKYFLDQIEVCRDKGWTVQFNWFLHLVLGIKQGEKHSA
T6 sequence (Q9JHG7 whole entry): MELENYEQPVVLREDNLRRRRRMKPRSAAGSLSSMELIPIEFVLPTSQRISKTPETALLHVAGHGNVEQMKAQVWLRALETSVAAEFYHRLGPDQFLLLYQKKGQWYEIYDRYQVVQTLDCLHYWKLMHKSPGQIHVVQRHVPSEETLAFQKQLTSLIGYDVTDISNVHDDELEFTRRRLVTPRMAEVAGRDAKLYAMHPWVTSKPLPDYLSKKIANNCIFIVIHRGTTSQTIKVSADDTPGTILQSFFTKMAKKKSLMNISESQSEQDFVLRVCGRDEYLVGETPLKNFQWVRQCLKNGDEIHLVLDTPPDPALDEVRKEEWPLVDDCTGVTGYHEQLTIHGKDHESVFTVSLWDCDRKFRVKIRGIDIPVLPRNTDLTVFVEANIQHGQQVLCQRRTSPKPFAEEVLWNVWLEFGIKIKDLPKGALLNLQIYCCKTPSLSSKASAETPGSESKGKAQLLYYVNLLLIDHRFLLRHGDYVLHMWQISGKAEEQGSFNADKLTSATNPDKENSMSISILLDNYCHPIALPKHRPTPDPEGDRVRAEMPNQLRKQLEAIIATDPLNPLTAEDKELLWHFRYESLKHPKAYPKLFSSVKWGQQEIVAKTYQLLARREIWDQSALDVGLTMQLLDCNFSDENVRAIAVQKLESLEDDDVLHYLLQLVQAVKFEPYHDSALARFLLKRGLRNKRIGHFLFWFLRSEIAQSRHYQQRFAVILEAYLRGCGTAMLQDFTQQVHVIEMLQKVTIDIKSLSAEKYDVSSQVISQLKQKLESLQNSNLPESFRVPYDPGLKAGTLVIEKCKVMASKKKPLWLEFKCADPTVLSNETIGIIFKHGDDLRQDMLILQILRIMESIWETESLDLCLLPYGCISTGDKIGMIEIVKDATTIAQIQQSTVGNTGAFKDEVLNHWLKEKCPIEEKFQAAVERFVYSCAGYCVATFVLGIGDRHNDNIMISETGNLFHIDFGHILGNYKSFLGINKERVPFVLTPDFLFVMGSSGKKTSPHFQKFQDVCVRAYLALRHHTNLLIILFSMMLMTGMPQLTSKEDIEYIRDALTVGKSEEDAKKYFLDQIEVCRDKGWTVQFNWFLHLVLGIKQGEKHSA
T3 sequence (O00329 whole entry): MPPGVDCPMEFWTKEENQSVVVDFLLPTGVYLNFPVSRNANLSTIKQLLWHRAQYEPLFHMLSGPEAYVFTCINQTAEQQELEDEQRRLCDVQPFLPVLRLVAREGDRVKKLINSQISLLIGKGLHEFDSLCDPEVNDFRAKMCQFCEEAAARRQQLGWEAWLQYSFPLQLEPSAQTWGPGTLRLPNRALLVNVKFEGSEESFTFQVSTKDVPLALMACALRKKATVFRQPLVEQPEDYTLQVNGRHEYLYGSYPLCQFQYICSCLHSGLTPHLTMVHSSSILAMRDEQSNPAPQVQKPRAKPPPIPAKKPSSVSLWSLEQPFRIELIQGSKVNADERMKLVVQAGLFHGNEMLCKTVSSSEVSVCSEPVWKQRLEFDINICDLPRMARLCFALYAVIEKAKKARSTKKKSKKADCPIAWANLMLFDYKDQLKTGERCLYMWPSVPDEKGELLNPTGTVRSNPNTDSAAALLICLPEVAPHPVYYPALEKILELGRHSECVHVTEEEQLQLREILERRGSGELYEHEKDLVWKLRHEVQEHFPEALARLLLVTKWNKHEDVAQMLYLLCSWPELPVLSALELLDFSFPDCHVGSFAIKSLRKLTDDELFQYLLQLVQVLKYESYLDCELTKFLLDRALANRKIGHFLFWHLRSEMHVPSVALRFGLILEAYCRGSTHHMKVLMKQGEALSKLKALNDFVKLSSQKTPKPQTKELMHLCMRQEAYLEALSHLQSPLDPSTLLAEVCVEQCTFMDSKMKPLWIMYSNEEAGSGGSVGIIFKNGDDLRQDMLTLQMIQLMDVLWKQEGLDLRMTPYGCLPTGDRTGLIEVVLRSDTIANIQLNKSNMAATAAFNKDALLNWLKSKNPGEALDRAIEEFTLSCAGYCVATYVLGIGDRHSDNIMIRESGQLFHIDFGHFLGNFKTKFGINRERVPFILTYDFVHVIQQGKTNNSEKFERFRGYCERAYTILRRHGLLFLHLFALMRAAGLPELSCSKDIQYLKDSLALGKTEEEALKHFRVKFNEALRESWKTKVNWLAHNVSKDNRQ
T3 sequence (P27986 whole entry partner): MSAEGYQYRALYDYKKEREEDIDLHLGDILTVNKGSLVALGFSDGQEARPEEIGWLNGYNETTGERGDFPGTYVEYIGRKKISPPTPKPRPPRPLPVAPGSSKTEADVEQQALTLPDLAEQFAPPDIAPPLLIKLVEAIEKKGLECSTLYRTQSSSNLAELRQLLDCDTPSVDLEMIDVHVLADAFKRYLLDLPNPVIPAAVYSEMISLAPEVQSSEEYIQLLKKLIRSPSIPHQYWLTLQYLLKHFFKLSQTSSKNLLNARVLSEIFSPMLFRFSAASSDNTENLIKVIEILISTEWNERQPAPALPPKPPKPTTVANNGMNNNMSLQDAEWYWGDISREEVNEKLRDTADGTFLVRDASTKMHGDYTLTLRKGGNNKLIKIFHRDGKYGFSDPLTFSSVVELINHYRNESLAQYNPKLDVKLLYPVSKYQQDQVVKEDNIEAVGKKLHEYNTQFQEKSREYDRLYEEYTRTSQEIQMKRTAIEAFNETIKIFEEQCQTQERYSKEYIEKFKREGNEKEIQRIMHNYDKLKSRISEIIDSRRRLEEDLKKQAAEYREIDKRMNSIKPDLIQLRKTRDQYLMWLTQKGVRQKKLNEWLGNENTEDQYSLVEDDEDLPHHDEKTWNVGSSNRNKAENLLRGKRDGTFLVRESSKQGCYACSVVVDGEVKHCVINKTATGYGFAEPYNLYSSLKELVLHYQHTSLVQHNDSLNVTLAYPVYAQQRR
T2 sequence (P42338 whole entry): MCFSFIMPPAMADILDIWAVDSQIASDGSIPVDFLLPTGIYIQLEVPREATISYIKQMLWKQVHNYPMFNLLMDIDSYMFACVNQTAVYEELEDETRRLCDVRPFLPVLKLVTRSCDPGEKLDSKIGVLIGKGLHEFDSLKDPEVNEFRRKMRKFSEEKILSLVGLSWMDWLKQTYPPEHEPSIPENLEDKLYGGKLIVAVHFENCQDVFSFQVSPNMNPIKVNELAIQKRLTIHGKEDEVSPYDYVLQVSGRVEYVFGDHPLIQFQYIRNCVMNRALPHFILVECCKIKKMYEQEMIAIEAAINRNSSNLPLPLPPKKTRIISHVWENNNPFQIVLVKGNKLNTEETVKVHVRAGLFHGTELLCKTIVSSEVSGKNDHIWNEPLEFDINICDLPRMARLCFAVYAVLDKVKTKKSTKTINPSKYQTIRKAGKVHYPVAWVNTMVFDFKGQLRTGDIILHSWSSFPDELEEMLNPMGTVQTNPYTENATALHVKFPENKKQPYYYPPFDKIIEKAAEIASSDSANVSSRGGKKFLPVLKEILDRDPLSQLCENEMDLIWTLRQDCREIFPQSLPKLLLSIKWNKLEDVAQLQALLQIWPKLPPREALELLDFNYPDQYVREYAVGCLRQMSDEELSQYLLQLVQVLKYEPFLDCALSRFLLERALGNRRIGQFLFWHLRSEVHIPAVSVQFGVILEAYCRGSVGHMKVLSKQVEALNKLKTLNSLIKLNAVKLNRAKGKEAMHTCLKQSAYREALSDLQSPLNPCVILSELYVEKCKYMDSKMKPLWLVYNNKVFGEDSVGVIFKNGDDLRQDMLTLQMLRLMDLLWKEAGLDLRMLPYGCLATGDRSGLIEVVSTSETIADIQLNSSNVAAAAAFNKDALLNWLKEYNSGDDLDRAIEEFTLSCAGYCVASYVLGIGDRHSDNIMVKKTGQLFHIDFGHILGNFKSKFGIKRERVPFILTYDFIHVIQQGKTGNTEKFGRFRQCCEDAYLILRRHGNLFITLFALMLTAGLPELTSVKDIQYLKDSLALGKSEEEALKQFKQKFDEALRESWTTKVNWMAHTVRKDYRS
T2 sequence (P27986 whole entry partner): as the sequence (P27986 whole entry partner) above

SMILES | inhibition at 10 µM ([1]; read-out: PI3Kα % inhib) [%] | inhibition at 10 µM [2] [%] | inhibition at 0.1 µM ([3]; 0.1 μM, read-out: PI3Kδ % inhib) [%] | inhibition at 1 µM ([3]; read-out: PI3Kδ % inhib) [%] | inhibition at 10 µM ([3]; read-out: PI3Kδ % inhib) [%] | inhibition at 1 µM [4] [%] | inhibition at 10 µM [4] [%] | EC50 [5] [µM] | EC50 [6] [µM] | inhibition at 1 µM ([1]; 1 μM, read-out: PI3Kα % inhib) [%] | IC50 [3] [µM] | IC50 [4] [µM] | increase in gamma potency compared to analog without amino substituent on the purine ring [4] [×] | IC50 [1] [µM] | IC50 [2] [µM]
Cc1cccc2nc(C(C)n3cnc4c(N)ncnc43)c(-c3ccccc3)nc12 (stereo not drawn) [Compound Q6, 9-[1-(5-methyl-3-phenylquinoxalin-2-yl)ethyl]-9H-purin-6-amine] | 32 | 61 | 63 | 86 | 100 | 48 | 89 | > 20 | > 20 |  |  |  |  |  | 
Cc1cccc2nc(C(C)Nc3ncnc4[nH]cnc34)c(-c3ccc(F)cc3)nc12 (stereo not drawn) [Compound Q7] | 88 | 77 |  | 71 | 100 | 61 | 95 | 15.2 | 3.59 | 28 |  |  |  |  | 
CCC(Nc1ncnc2[nH]cnc12)c1nc2cccc(C)c2nc1-c1ccccc1 (stereo not drawn) [Compound Q8] | 50 | 53 |  | 58 | 100 | 30 | 83 | > 20 | > 20 |  |  |  |  |  | 
CC(Nc1ncnc2[nH]cnc12)c1nc2ccccc2nc1-c1c(F)cccc1F (stereo not drawn) [Compound Q10] | 30 | 30 |  | 74 | 99 | 12 | 82 | > 20 | > 20 |  |  |  |  |  | 
Cc1ccc(-c2nc3ccccc3nc2C(C)Nc2ncnc3[nH]cnc23)cc1 (stereo not drawn) [Compound Q11] | 53 | 76 |  | 45 | 99 |  | 79 | > 20 | > 20 |  |  |  |  |  | 
Nc1ncnc2c1ncn2Cc1nc2ccccc2nc1-c1ccccc1 [Compound Q13] |  |  |  |  |  |  |  |  |  |  | 1.17 | 46.5 |  |  | 
c1ccc(-c2nc3ccccc3nc2CSc2ncnc3[nH]cnc23)cc1 [Compound Q14] |  |  |  |  |  |  |  |  |  |  | 0.95 | 17.5 |  |  | 
Nc1nc(SCc2nc3ccccc3nc2-c2ccccc2)c2nc[nH]c2n1 [Compound Q15] |  |  |  |  |  |  |  |  |  |  | 0.25 | 2.38 | 8 |  | 
c1ccc(-c2nc3ccccc3nc2CNc2ncnc3[nH]cnc23)cc1 [Compound Q16] |  |  |  |  |  |  |  |  |  |  | 0.19 | 20.5 |  | 51 | 14.5
Nc1nc(NCc2nc3ccccc3nc2-c2ccccc2)c2nc[nH]c2n1 [Compound Q17] |  |  |  |  |  |  |  |  |  |  | 0.075 | 0.692 | 30 | 100 | 8.5
